In the NIST ThermoML archive (doi:10.1016/j.fluid.2006.02.001):
± gives the expanded uncertainty stated by the source. Values belong to the compound of their own block, whether it stands above or below them.

Tests used:
[1] = visual observation
[2] = Molar enthalpy of transition or fusion; settings: Crystal; DSC
[3] = Solid-liquid equilibrium temperature; settings: Crystal, Closed cell

Compound: CCCCCCCCCCCCCCCCO [1-hexadecanol]
- Normal melting temperature ([1]; Crystal 1): 49.1 ± 0.5 °C

Compound: CCC(=O)C(C)=O [2,3-pentanedione]
- Molar enthalpy of transition or fusion [2]: 1.87 ± 0.055 kcal/mol
- Normal melting temperature ([1]; Crystal 1): -52.00 ± 0.5 °C
- Solid-liquid equilibrium temperature ([3]; 697870 kPa): 293.15 ± 2.6 K
- Solid-liquid equilibrium temperature ([3]; 807350 kPa): 303.15 ± 2.6 K
- Solid-liquid equilibrium temperature ([3]; 947230 kPa): 313.15 ± 2.5 K
- Solid-liquid equilibrium temperature ([3]; 1117520 kPa): 323.15 ± 2.5 K
- Solid-liquid equilibrium temperature ([3]; 1318200 kPa): 333.15 ± 2.5 K
- Solid-liquid equilibrium temperature ([3]; 1549280 kPa): 343.15 ± 2.8 K

Compound: C1CCCCC1 [cyclohexane]
- Normal melting temperature ([1]; Crystal): 7.0 ± 0.25 °C
- Solid-liquid equilibrium temperature ([3]; 23390 kPa): 293.15 ± 0.52 K
- Solid-liquid equilibrium temperature ([3]; 45610 kPa): 303.15 ± 0.89 K
- Solid-liquid equilibrium temperature ([3]; 67600 kPa): 313.15 ± 1.3 K
- Solid-liquid equilibrium temperature ([3]; 89340 kPa): 323.15 ± 1.7 K
- Solid-liquid equilibrium temperature ([3]; 110840 kPa): 333.15 ± 2.1 K
- Solid-liquid equilibrium temperature ([3]; 132100 kPa): 343.15 ± 2.5 K

Compound: CCCCCCCCCCCCCCCC [hexadecane]
- Normal melting temperature ([1]; Crystal): 18.30 ± 0.25 °C

Compound: CCCCCCCCCCCCC [tridecane]
- Normal melting temperature ([1]; Crystal): -4.14 ± 0.35 °C
- Solid-liquid equilibrium temperature ([3]; 132350 kPa): 293.15 ± 0.9 K
- Solid-liquid equilibrium temperature ([3]; 196230 kPa): 303.15 ± 1.2 K
- Solid-liquid equilibrium temperature ([3]; 264630 kPa): 313.15 ± 1.6 K
- Solid-liquid equilibrium temperature ([3]; 337550 kPa): 323.15 ± 1.9 K
- Solid-liquid equilibrium temperature ([3]; 415000 kPa): 333.15 ± 2.1 K
- Solid-liquid equilibrium temperature ([3]; 496960 kPa): 343.15 ± 2.5 K

More lines, now with the values ahead:

- Normal melting temperature ([1]; Crystal 1): 64.52 ± 0.5 °C
Compound: CCCCCCCCCCCCCCCCCCCCO [1-eicosanol]

- Normal melting temperature ([1]; Crystal 1): 57.00 ± 0.5 °C
Compound: CCCCCCCCCCCCCCCCCCO [1-octadecanol]

- Normal melting temperature ([1]; Crystal): 36.36 ± 0.25 °C
Compound: CCCCCCCCCCCCCCCCCCCC [eicosane]
